From ChEMBL document CHEMBL1201862, “PubChem BioAssay data set” (2004)
Active and inactive are the calls of the source.

Key:
[1] = molecular target: T1, Polyadenylate-binding protein 1 (Homo sapiens, UniProt P11940); assay: PABP1 MLLE–PAM2 interaction inhibitors, dose response, miRNA deadenylation inhibitor project, biochemical, fluorescence polarization, Cy5-PAM2 peptide, secondary (AID 602260); type: functional; settings: read-out: IC50_Mean
[2] = molecular target: T1, Polyadenylate-binding protein 1; assay: PABP1 MLLE–PAM2 binding inhibitor potency, dose response, biochemical, fluorescence polarization, FITC-PAM2 peptide (AID 602259); type: functional; settings: read-out: IC50_Mean
[3] = molecular target: Female germline-specific tumor suppressor gld-1 (Caenorhabditis elegans, UniProt Q17339); assay: inhibitors of GLD-1 binding to TGE RNA, dose response, biochemical, fluorescence polarization, C. elegans (AID 2802);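 also: fluorescence polarization of labeled TGE RNA bound by purified gld-1 protein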
Chain of Female germline-specific tumor suppressor gld-1 (Q17339 whole entry): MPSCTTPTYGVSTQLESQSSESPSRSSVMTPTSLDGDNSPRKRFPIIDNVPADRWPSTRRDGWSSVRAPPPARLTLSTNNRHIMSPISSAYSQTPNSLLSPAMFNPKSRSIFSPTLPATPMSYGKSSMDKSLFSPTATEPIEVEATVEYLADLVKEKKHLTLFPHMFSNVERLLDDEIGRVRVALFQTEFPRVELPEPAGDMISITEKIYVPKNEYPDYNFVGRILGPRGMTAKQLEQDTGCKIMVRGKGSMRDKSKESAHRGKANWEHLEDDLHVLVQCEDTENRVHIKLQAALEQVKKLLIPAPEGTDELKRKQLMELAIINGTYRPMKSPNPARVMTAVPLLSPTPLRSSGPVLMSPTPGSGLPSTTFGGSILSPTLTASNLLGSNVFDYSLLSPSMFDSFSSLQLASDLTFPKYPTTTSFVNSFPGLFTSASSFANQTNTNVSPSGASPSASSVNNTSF

Protein Rev = Protein Rev (Human immunodeficiency virus type 1 group M subtype B (isolate HXB2)(HIV-1), UniProt P04618); assay: inhibitors of Rev binding to RRE RNA, dose response, biochemical, fluorescence polarization, HIV-1 (AID 434976); parameters: species or system Human immunodeficiency virus 1
Chain of Protein Rev (P04618 whole entry): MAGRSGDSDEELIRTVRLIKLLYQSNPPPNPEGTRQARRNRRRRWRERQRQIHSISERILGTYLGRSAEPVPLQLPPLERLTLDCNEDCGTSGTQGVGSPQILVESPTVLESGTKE

Bcl-2-like protein 10 = Bcl-2-like protein 10 (Homo sapiens, UniProt Q9HD36); assay: displacers of TR3 peptide from Bcl-B, primary screen, selectivity assay for Bfl-1 inhibitor project, biochemical, fluorescence polarization, FITC-TR3 peptide (AID 748);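 also: fluorescence polarization from a fluorescein-labelled TR3 peptide binding purified Bcl-B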
Chain of Bcl-2-like protein 10 (Q9HD36 whole entry): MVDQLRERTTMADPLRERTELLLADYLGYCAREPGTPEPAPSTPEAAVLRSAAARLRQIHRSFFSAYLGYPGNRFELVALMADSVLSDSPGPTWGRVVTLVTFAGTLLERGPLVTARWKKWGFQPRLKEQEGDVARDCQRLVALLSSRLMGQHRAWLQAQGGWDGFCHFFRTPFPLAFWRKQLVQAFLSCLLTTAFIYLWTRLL

[4] = inhibitors of intracellular T. cruzi replication, confirmation, NIH3T3 host cells, beta-gal luminescence (AID 2044); type: functional, cell-based;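 also: intracellular parasites grown in NIH/3T3 mouse fibroblasts as host cells; luminescent beta-galactosidase reporter signal from transgenic T. cruzi replicating inside host cells; inhibitors lower the luminescence signal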
[5] = cytotoxicity toward NIH3T3 fibroblasts, dose response, counter-screen, cell-based, ATP luminescence, mouse fibroblasts (AID 2010); type: functional;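 also: cells exposed to compound for about 90 hours before reading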
[6] = molecular target: T2, Eukaryotic translation initiation factor 2-alpha kinase 3 (Homo sapiens, UniProt Q9NZJ5); assay: Dose response cell-based high-throughput screening assay to measure PERK inhibition. [Related pubchem assays: 1416 ]; type: functional
T2 sequence (Q9NZJ5 whole entry): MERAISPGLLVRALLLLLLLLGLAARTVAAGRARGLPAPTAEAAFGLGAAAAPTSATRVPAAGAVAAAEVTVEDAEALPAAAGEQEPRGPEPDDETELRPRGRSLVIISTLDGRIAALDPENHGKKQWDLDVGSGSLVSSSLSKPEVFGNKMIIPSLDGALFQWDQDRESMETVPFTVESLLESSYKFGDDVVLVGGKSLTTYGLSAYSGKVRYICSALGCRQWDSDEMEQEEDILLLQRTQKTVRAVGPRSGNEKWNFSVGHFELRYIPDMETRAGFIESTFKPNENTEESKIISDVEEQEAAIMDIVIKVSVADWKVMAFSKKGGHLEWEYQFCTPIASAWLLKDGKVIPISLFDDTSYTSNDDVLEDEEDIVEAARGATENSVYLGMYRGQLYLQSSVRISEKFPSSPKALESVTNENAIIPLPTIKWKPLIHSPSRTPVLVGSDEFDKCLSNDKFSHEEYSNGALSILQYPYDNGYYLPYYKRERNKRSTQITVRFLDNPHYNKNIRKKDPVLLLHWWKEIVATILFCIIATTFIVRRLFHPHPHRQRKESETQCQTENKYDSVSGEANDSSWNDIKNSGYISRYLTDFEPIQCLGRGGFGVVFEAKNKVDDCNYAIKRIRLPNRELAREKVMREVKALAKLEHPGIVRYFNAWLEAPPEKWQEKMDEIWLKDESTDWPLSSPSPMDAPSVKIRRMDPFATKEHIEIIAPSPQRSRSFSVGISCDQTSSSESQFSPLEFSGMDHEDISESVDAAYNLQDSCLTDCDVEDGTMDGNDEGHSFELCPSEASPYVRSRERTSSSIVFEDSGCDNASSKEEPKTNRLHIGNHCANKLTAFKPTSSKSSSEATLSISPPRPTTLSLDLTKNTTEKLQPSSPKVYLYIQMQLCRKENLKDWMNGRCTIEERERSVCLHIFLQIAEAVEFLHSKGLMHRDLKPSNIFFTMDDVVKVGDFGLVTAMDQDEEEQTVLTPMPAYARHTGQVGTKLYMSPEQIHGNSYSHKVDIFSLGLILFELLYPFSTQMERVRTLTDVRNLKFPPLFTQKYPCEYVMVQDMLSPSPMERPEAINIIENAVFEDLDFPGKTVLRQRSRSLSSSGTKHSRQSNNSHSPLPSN

[7] = molecular target: T2, Eukaryotic translation initiation factor 2-alpha kinase 3; assay: Counterscreen assay for PERK inhibitors: Dose response cell-based high throughput screening assay to measure inhibition of PERK at 6 hours. [Related pubchem assays: 1522, 1416 ]; type: functional
[8] = molecular target: Guanyl-specific ribonuclease T1 (Aspergillus oryzae (strain ATCC 42149 / RIB 40), UniProt P00651); assay: RNase T1 inhibitors, dose response, counter-screen for TPT1 inhibitor project, biochemical, fluorescence polarization, 1536-well (AID 2167)
Chain of Guanyl-specific ribonuclease T1 (P00651 whole entry): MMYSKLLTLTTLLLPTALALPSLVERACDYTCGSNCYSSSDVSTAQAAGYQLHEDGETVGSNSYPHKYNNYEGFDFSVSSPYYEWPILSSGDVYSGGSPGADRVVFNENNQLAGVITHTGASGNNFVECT

[9] = molecular target: T3, Zinc finger protein mex-5 (Caenorhabditis elegans, UniProt Q9XUB2); assay: MEX-5/TCR-2 RNA interaction inhibitors, dose response, biochemical, C. elegans, fluorescence polarization (AID 1960)
T3 sequence (Q9XUB2 whole entry): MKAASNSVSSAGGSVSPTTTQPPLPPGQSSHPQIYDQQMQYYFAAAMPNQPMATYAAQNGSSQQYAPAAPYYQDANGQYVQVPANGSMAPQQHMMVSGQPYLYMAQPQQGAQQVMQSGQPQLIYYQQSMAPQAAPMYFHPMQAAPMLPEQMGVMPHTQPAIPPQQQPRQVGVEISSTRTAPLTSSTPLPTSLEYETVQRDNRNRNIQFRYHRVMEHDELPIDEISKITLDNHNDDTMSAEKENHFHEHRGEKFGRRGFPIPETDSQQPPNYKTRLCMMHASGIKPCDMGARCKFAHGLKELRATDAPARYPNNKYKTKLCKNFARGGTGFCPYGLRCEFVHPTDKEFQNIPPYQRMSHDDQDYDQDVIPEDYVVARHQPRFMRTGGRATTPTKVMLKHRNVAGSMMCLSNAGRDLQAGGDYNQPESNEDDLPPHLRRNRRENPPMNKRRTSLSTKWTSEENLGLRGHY

[10] = molecular target: T4, RNA-binding protein pos-1 (Caenorhabditis elegans, UniProt G5EF15); assay: inhibitors of POS-1/mex-3 RNA binding, dose response, biochemical, fluorescence polarization (AID 1964);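 also: purified POS-1 fused to maltose binding protein made in E. coli; potency of compounds blocking POS-1 binding to fluorescent RNA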
T4 sequence (G5EF15 whole entry): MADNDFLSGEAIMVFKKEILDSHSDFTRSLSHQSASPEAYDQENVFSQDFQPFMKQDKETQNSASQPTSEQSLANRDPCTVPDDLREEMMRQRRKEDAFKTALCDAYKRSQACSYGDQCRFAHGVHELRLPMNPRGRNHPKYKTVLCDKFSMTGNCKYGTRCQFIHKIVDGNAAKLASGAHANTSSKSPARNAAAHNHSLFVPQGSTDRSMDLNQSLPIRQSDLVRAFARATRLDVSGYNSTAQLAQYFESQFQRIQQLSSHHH

[11] = molecular target: Likely tRNA 2'-phosphotransferase (Candida albicans (strain SC5314 / ATCC MYA-2876) (Yeast), UniProt Q5A7N4); assay: TPT1 tRNA phosphotransferase inhibitors, dose response, biochemical, fluorescence polarization (AID 2160)
Chain of Likely tRNA 2'-phosphotransferase (Q5A7N4 whole entry): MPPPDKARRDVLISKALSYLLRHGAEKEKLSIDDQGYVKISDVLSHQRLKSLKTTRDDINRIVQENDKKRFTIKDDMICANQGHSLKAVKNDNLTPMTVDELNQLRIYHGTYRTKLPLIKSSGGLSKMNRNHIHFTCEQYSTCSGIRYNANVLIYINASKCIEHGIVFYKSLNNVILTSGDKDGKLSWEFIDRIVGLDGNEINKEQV

Cytochrome P450 2C9 = Cytochrome P450 2C9 (Homo sapiens, UniProt P11712)
Chain of Cytochrome P450 2C9 (P11712 whole entry): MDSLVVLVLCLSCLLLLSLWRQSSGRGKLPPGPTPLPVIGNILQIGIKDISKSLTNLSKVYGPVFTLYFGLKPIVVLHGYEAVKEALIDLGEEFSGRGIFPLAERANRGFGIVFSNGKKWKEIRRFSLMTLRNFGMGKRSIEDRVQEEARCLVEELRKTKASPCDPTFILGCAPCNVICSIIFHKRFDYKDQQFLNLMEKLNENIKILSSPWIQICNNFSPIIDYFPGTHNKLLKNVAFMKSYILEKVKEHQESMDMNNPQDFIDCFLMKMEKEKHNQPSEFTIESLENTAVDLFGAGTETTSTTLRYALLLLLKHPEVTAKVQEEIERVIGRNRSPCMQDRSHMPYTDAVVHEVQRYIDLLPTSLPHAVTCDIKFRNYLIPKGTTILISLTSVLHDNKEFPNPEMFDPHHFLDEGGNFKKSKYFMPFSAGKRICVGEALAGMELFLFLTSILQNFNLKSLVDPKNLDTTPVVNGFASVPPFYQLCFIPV

Nonstructural protein 1 = Nonstructural protein 1 (Influenza A virus, UniProt Q194T2); type: functional, Influenza A virus (A/California/07/2009(H1N1))
Chain of Nonstructural protein 1 (Q194T2 whole entry): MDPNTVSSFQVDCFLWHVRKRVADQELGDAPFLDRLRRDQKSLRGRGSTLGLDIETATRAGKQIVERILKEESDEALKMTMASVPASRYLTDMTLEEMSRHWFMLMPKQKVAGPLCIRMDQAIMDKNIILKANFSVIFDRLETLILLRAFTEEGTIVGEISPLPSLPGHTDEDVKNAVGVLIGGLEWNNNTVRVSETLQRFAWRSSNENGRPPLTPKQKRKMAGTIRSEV

Cytochrome P450 2C19 = Cytochrome P450 2C19 (Homo sapiens, UniProt P33261); assay: Cytochrome panel assay with activity outcomes. Panel member name: p450-cyp2c19 Compounds with AC50 equal or less than 10 uM are considered active; type: functional
Chain of Cytochrome P450 2C19 (P33261 whole entry): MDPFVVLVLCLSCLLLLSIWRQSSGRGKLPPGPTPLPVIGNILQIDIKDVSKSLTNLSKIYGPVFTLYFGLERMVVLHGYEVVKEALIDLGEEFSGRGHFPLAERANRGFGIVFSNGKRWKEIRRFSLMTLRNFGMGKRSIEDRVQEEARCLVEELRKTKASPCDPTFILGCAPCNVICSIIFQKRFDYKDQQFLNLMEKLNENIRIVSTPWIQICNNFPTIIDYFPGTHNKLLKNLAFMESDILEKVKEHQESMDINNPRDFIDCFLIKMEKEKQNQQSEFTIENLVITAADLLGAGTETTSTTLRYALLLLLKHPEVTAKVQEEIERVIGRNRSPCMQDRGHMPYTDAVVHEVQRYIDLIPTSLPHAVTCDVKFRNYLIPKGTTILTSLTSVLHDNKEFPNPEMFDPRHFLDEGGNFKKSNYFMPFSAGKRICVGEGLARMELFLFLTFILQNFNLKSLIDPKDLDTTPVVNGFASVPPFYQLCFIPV

[12] = Luminescence Cell-Based Dose Confirmation to Identify Activators of 5'UTR Stem-Loop Driven Alpha-Synuclein mRNA Translation in H4 Neuroglioblastoma Cells. [Related pubchem assays: 1829 (Project Summary), 1814 (Primary HTS)]; type: functional
[13] = Luminescence Cell-Based Dose Confirmation HTS to Identify Activators of 5'UTR Stem-Loop Driven Alpha-Synuclein mRNA Translation in H4 Neuroglioblastoma Cells. [Related pubchem assays: 1829 (Project Summary), 1814 (Primary HTS)]; type: functional
[14] = Luminescence Cell-Based Dose Response HTS to Identify Activators of Luciferase Translation or Activity in H4 […] Cells. [Related pubchem assays: 1829 (Project Summary), 1814 (Primary HTS)]; type: functional
[15] = Luminescence Cell-Based Dose Response to Identify Activators of Luciferase Translation or Activity in H4-C Neuroglioblastoma Cells. [Related pubchem assays: 1829 (Project Summary), 1814 (Primary HTS)]; type: functional
[16] = Luminescence Cell-Based Dose Response to Identify Activators of 5'UTR Stem-Loop Driven Prion Protein mRNA Translation in H4-C Neuroglioblastoma Cells. [Related pubchem assays: 1829 (Project Summary), 1814 (Primary HTS)]; type: functional
H4 = assay: Luminescence Cell-Based Dose Response HTS to Identify Activators of 5'UTR Stem-Loop Driven Prion Protein mRNA Translation in H4 Neuroglioblastoma Cells. [Related pubchem assays: 1829 (Project Summary), 1814 (Primary HTS)]; type: functional; settings: Homo sapiens

T1 sequence (P11940 whole entry): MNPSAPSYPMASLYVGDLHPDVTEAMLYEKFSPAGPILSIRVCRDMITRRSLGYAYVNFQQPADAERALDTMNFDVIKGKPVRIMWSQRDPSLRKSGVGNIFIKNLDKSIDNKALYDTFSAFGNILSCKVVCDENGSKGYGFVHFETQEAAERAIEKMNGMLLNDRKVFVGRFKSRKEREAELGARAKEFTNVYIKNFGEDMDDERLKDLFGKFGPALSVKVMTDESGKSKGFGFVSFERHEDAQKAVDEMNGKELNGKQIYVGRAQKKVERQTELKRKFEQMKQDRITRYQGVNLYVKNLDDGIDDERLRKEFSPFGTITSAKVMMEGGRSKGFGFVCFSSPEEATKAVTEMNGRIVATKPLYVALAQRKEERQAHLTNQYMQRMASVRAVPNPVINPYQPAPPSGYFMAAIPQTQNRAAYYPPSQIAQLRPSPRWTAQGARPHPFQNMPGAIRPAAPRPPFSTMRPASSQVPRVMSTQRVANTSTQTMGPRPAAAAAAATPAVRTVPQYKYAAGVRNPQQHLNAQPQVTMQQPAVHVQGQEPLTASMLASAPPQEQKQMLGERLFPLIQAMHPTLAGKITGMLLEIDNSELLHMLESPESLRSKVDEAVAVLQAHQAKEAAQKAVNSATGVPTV

CN(C(=O)CN1C(=O)c2cccc(N)c2C1=O)C1CCCCC1
IC50 [1]: > 66 µM (inactive) | IC50 [2]: 32.6 µM (inactive) | IC50 [3]: 4.29 µM (active) | IC50 (Protein Rev): > 8.39 µM (active)

O=C(COC(=O)CC12CC3CC(CC(C3)C1)C2)Nc1ncc(Cl)cc1Cl
IC50 (Bcl-2-like protein 10): 40.2 µM (active)

O=C(CCC1CCCN(Cc2cccc3c2OCO3)C1)NCc1ccc(F)c(F)c1 (stereo not given)
EC50 [4]: < 0.1 µM (active) | EC50 (cells): 0.216 µM (active) | EC50 [5]: > 60 µM (not active)

Cc1ccccc1NC(=O)NCCCN1CCCC1
EC50 [6]: > 55.7 µM (not active) | EC50 [7]: > 55.7 µM (not active)

CCOc1cc(/C=C2\C(=O)NC(=O)N(CCc3ccc(F)cc3)C2=O)ccc1O
IC50 [8]: 28 µM (not active) | EC50 [9]: > 300 µM (not active) | EC50 [10]: > 300 µM (not active) | IC50 [11]: > 55.7 µM (not active)

O=C(Cn1cnc([N+](=O)[O-])n1)N/N=C/c1ccccc1O
AC50 (Cytochrome P450 2C9): 10 µM (inconclusive) | IC50 (Nonstructural protein 1): 9.05 µM (active) | EC50 [6]: > 55.7 µM (not active) | AC50 (Cytochrome P450 2C19): inconclusive | EC50 [7]: > 55.7 µM (not active)

COc1ccc(/C=N/NC(=O)c2ccc[nH]2)cc1
EC50 [12]: 0.343 µM (active) | EC50 [13]: 0.155 µM (active) | EC50 [14]: 0.114 µM (active) | EC50 [15]: 0.324 µM (active) | EC50 [16]: 0.46 µM (active) | EC50 (H4): < 0.1 µM (active)
